Source: ChEMBL document CHEMBL3507680, “University of Dundee, Gates Library screen for HepG2 cell viability”

experiment: Human HepG2 cell viability assay in 384 well format; assay type: toxicity, cell-based; parameters: dose 125 nL, time 70.5 hour; cytotoxicity at 70.5 h: concentration not given beside the values; settings: HepG2 cells, read-out: Inhibition

Row | SMILES | cytotoxicity at 70.5 h
1 | COCC(=O)Nc1ccc(N2CCC(OC)CC2)c(C(F)(F)F)c1 | -0.835%
2 | CCc1nc(CN2CCCN(Cc3noc(C4CC4)n3)CC2)cs1 | -0.776%
3 | Cc1cnn(CC(C)NCc2ccc(C#N)cc2)c1 (stereo unspecified) | 0.599%
4 | COc1cccc(OCC(=O)N2CCOc3ccncc32)c1 | 13.2%
5 | Cc1nc(CN(Cc2ccccc2F)C2CCC2)no1 | -3.66%
6 | CCN(C(=O)Cn1cc(Cl)cn1)c1ccccc1 | 5.93%
7 | CC(C)N1CCCC(CNC(=O)CN(C)S(=O)(=O)c2ccccc2)C1 (stereo unspecified) | -5.65%
8 | Cc1ccccc1SCC(=O)NC1CCC(O)CC1 (stereo unspecified) | 7.04%
9 | O=C1NCC(C(=O)NCc2ccccc2CN2CCOCC2)N1 (stereo unspecified) | -4.6%
10 | O=C(COCc1ccccc1)NCc1ccc(O)c(F)c1 | -0.734%
11 | CN1CCN(CCOc2ccc(NC(=O)c3ccncc3)cc2)CC1 | -3.29%
12 | COc1ncccc1N(C)C(=O)Cn1cc(-c2ccccc2)nn1 | -4.75%
13 | CC(C)c1noc(CN2CCN(C(=O)OC(C)(C)C)C(C)C2)n1 (stereo unspecified) | 7.76%
14 | CCc1ccc(C(=O)NCC2CCCN2CC)o1 (stereo unspecified) | -3.5%
15 | Cc1cc(CN(C)C(=O)CC(C)C)no1 | -2.9%
16 | CC(=O)N1CCCN(C(=O)NC(C)Cn2ccnc2)CC1 (stereo unspecified) | -4.31%
17 | CC(=O)N1CCN(CCNC(=O)NC(C)Cn2ccnc2)CC1 (stereo unspecified) | -2.74%
18 | COc1ccccc1CC(C)CC(=O)N(C)Cc1cc(C)on1 (stereo unspecified) | 2.26%
19 | COc1ccc(CN(C)C(=O)CN2CC(n3cccn3)C2)cc1F | -0.231%
20 | COc1ccccc1CC(=O)N(C)Cc1cc(C)on1 | -3.86%
21 | N#Cc1cccnc1NCCNC(=O)NCCSC(F)(F)F | -10.1%
22 | CC(=O)N1CCN(C(=O)c2sccc2Br)CC1 | 15.1%
23 | CN(CC(=O)NCCC#N)C(c1ccccc1)c1ccc(F)cc1 (stereo unspecified) | -15.7%
24 | Cc1n[nH]c(C)c1CNCC(O)c1ccc(F)c(F)c1 (stereo unspecified) | -3.32%
25 | CC(C)N(CC(N)=O)Cc1c(Cl)ccc2cccnc12 | -8.03%

Row | SMILES | cytotoxicity at 70.5 h
26 | COC(=O)c1ccc(N2CCN(Cc3csc(C)n3)CC2)nn1 | -14.7%
27 | CCOCCCC(=O)Nc1ccc(OCc2noc(C3CC3)n2)cc1 | 7.14%
28 | CCOCCNC(=O)Nc1ccc(OCc2noc(C3CC3)n2)cc1 | -7.9%
29 | COCCCNC(=O)Nc1ccc(OCc2noc(C3CC3)n2)cc1 | -11.8%
30 | O=C(Cc1ccccc1Br)NCC(=O)Nc1cn[nH]c1 | -6.36%
31 | O=C(Cc1ccc(Br)s1)NCC(=O)Nc1cn[nH]c1 | -9.18%
32 | N#CC1COCCN1S(=O)(=O)c1ccc(F)c(Br)c1 (stereo unspecified) | -9.56%
33 | CN(C)c1cccc(C2CCCN2c2nc3c(cnn3C)c(=O)[nH]2)c1 (stereo unspecified) | 15.4%
34 | CC(C)Cn1cc(NC(=O)NC(C)(C)c2nccs2)cn1 | -6.56%
35 | CC(C)(NC(=O)Nc1cnn(CC2CCCO2)c1)c1nccs1 (stereo unspecified) | -6.03%
36 | CN(Cc1c(Cl)ccc2cccnc12)CC(C)(CO)CO | -10.4%
37 | c1cc(CCn2ccc(NC3CCSCC3)n2)ccn1 | -3.19%
38 | Cc1ncc(C(=O)Nc2cncnc2N(C)C)c(Cl)c1Cl | -9.76%
39 | CC(NCCc1nccn1Cc1ccccc1)c1ccsc1 (stereo unspecified) | -10.7%
40 | CC(C)CCn1ccc(NC2CCSC2)n1 (stereo unspecified) | -8.47%
41 | Cc1nn(-c2ccc(F)cc2)c2[nH]nc(N)c12 | 8.73%
42 | NC(=O)c1ccnc(N2CCN(Cc3ccc(F)cc3Cl)CC2)c1 | -15.2%
43 | CCOc1ccc(Cl)c(C(=O)NC(C(N)=O)c2ccccc2)n1 (stereo unspecified) | 14.2%
44 | Cc1cc(S(C)(=O)=O)c(C)c(S(=O)(=O)NC2CCCC2)c1 | -8.42%
45 | Cc1nnc(CN2CCN(Cc3nccn3C)CC2)n1C | -8.45%
46 | Cc1cc(NC(=O)N2CCN(C)CC2C)n(CCC#N)n1 (stereo unspecified) | 18.4%
47 | Cc1cc(NC(=O)N2CCN(C)CC2C)n(C)n1 (stereo unspecified) | -6.62%
48 | Cc1[nH]n(-c2ccccc2)c2nnc(N)c1-2 | -2.04%
49 | CSc1ccsc1C(=O)NC(Cc1ccccc1)C(N)=O (stereo unspecified) | -1.87%
50 | CN(CCN1CCN(c2ccccc2)CC1)C(=O)Nc1ccccn1 | 17.7%

Row | SMILES | cytotoxicity at 70.5 h
51 | Cc1ccc(CNC(=O)N(C)Cc2ccc([S+](C)[O-])cc2)s1 (stereo unspecified) | -6.72%
52 | COC(=O)c1cccc(CNC(=O)CC(F)(F)F)c1 | -5.17%
53 | OC1(CNCc2ccc(F)c(C(F)(F)F)c2)CCOC1 (stereo unspecified) | -2.64%
54 | COc1cccc(Cn2cccc(C#N)c2=O)c1 | -7%
55 | CCc1cccc(OCCn2cccc(C#N)c2=O)c1 | -8.55%
56 | CCc1nnc(SCC(=O)Nc2cc(C(C)(C)C)nn2C)[nH]1 | -5.12%
57 | CCc1ocnc1C(=O)N1CCC2(CC1)OCC(C)O2 (stereo unspecified) | -5.57%
58 | Cc1csc(CNC(=O)N(C)Cc2ccc([S+](C)[O-])cc2)n1 (stereo unspecified) | -5.11%
59 | COc1ccc(-c2nnc(C(C)N3CCC4(CC3)OCCO4)o2)cc1 (stereo unspecified) | -10.3%
60 | O=C(NCC(O)COc1cccc(F)c1)C1(c2ccc(F)cc2)CC1 (stereo unspecified) | -12%
61 | Cc1cccc(CN(Cn2nc(C)c3c(C)onc3c2=O)C2CC2)c1 | -13.7%
62 | CNC(=O)c1cccc(NC(=O)NCc2ccc(SC)cc2)c1C | -7.01%
63 | Cc1cnn(C2CN(c3nc(C)cc(N(C)C)n3)C2)c1 | 0.987%
64 | NC(=O)C1CN(Cc2c(O)ccc3oc4c(c23)CCCC4)CCO1 (stereo unspecified) | -5.87%
65 | Cc1ccc(CCNC(=O)NCc2cccc(OC(F)F)c2)cn1 | -8.89%
66 | COc1cc2nc(NCc3cc(C)on3)nc(N)c2cc1OC | 34.1%
67 | CCOc1ccc(NC(=O)NC2CCc3nc(C)nn3C2)cc1Cl (stereo unspecified) | -2.45%
68 | CCc1ccc(C2COCCN2C(=O)Nc2cccc(C(C)=O)c2)o1 (stereo unspecified) | -1.25%
69 | Cc1nonc1NC(=O)C1SCCc2ccccc21 (stereo unspecified) | 2.97%
70 | CCc1ccc(C2COCCN2C(=O)Nc2cc(C)on2)o1 (stereo unspecified) | -3.5%
71 | NC(=O)CN1CCC(NC2CCCCc3ccccc32)CC1 (stereo unspecified) | 5.24%
72 | OCCNC1CSCCc2ccccc21 (stereo unspecified) | 33.4%
73 | O=C(NCc1cc(Cl)ccn1)NCc1ccco1 | 13.9%
74 | CS(=O)(=O)NCCNC(=O)NC1(c2ccc(Cl)cc2)CCC1 | 16.5%
75 | Cc1nn(CN(Cc2ccsc2)C2CC2)c(=O)c2noc(C)c12 | -8.61%

Row | SMILES | cytotoxicity at 70.5 h
76 | OCCOc1ccc(NCc2cccnc2)cn1 | 24.6%
77 | CCCNC(=O)CCNC1CSCCc2ccccc21 (stereo unspecified) | -2.78%
78 | CCS(=O)(=O)NCCCNC1CSCCc2ccccc21 (stereo unspecified) | -7.41%
79 | COCc1nccc(C2CCCN(Cc3cccc(C#N)c3)C2)n1 (stereo unspecified) | -9.48%
80 | N#Cc1ccc(S(=O)(=O)NCCn2ccnc2)cc1Cl | -0.547%
81 | O=C(NCc1ccccc1CN1CCCC1)Nc1nncs1 | 3.29%
82 | Cn1c(=O)ccn(CC(=O)Nc2cnccc2O)c1=O | -4.1%
83 | CC(Cn1ccnc1)NS(=O)(=O)c1ccc(C#N)c(Cl)c1 (stereo unspecified) | -9.17%
84 | CC(C)(C(=O)NCc1ccccc1F)n1cc(Br)cn1 | -6.29%
85 | NC(=O)c1ccc(C(=O)N2CCCCC2C2OCCO2)cc1 (stereo unspecified) | -10.6%
86 | CN(C1CCN(c2ccccn2)CC1)S(=O)(=O)c1cccs1 | -8.7%
87 | Cn1c(=O)ccn(CC(=O)Nc2cccnc2)c1=O | 12.6%
88 | Cc1nn(C)c(N(C)C)c1CNCc1ccnn1C | -5.03%
89 | Cc1cnc(CN2CCN(C(C)c3nc(C(C)C)no3)CC2)cn1 (stereo unspecified) | -6.56%
90 | O=C(COCC1CC1)N1CCN(C(=O)Cc2ccccn2)CC1 | -1.46%
91 | c1ccc(Cc2noc(CN3CCCCC3C3OCCO3)n2)cc1 (stereo unspecified) | -2.71%
92 | COc1ccc(OCC(=O)NS(=O)(=O)c2cc(C)ccc2C)cc1 | -6.75%
93 | N#Cc1ccc(SCCCO)c(F)c1 | -5.69%
94 | COCc1nccc(C2CCCN(Cc3cccc(F)c3)C2)n1 (stereo unspecified) | 0.742%
95 | O=C(c1ccc(Cl)c(Cl)c1)N1CCCCC1C1OCCO1 (stereo unspecified) | -4.22%
96 | CC(C)c1nn(C)c(N(C)C)c1CNCc1ccnn1C | 18%
97 | CCNC(=O)CN1CCC(c2cc(OC)cc(OC)c2)C1 (stereo unspecified) | -10.7%
98 | CC(C)N(Cc1cccc(Cl)c1)Cc1nnsc1Cl | -2.95%
99 | CCN(CC1CCOC1)C(=O)c1ccc(COc2ccccc2C#N)o1 (stereo unspecified) | -3.17%
100 | COCCNS(=O)(=O)c1ccc(Cl)c(C(=O)N(C)Cc2ccsc2)c1 | -5.32%

Row | SMILES | cytotoxicity at 70.5 h
101 | CS(=O)(=O)NCC1CCCN(c2ccc(C#N)cn2)C1 (stereo unspecified) | -8.07%
102 | CS(=O)(=O)NC1CCCN(c2ccc(C#N)cn2)C1 (stereo unspecified) | -6.77%
103 | O=C(NCCNc1ncccn1)N1CCc2ccccc2C1 | 8.69%
104 | CCN(Cc1ccc2c(c1)OCO2)C(=O)c1ccc(=O)n(C)c1 | -0.838%
105 | CCOc1cccc(CNc2cncc(-n3cccn3)n2)c1 | -8.59%
106 | Fc1cccc(CNc2cncc(-n3cccn3)n2)c1 | -6.71%
107 | N#Cc1ccccc1N1CCCN(CC(=O)Nc2ccc(Cl)cn2)CC1 | -2.38%
108 | Cn1c(NC(=O)CCS(=O)(=O)C2CCCC2)nc2cc(Cl)ccc21 | -9.03%
109 | O=C(CC1CCCC1)NCCn1nc2ccccn2c1=O | -2.13%
110 | CC1CCN(C(=O)C2CCCN(C(=O)Nc3ccccn3)C2)CC1 (stereo unspecified) | -9.24%
111 | Cc1nn(C)c2ncc(S(=O)(=O)N3CCCN4CCCC4C3)cc12 (stereo unspecified) | -2.09%
112 | Cc1nn(C)c2ncc(S(=O)(=O)N3CCCC(C(N)=O)C3)cc12 (stereo unspecified) | -6.46%
113 | CN(C)c1ncccc1CNC(=O)N1CCN(C)c2ccccc2C1 | -8.8%
114 | COc1cccc(N2CCC(CNC(=O)CN3CSCC3=O)C2)c1 (stereo unspecified) | -9.99%
115 | CCCc1cc(NCCn2cccn2)n2ncnc2n1 | -6.07%
116 | Cc1ncc(CN(C)C(=O)c2ccc(N3CCOCC3)c(F)c2)s1 | -6.71%
117 | Cc1nn(C)c2ncc(S(=O)(=O)N3CCN4CCCC4C3)cc12 (stereo unspecified) | -7.68%
118 | Cn1ccnc1COc1ccc(COC(=O)C2CCCO2)cc1 (stereo unspecified) | 3.75%
119 | Cn1c(NC(=O)CNC(=O)C2CC2)nc2cc(Cl)ccc21 | -7.94%
120 | Cc1nn(C)c2ncc(S(=O)(=O)N3CCCC(C)CC3)cc12 (stereo unspecified) | -8.46%
121 | COc1cc(NC(=O)NC2CCCC2)ccc1N1CCOC1=O | -8.76%
